The values below come from US8962846B2, “Melanocortin receptor antagonist compounds, process for preparing them and use thereof in human medicine and cosmetics” (Galderma Research & Development, priority 2008, dated 2015).

The target of experiment [1] is T1, hMC4-R (Homo sapiens, UniProt P32245).
T1 construct: expressed in transfected cells; host or cells: HEK293
Description: Transactivation test: melanocortin receptors (CRE-Luc luciferase), hMC4-R. Format: cell-based. Particulars: HEK293 transfected with pCRE-Luc and receptor; 10-point dose response from 10 μM; antagonist behaviour tested in presence of 1 nM NDP-MSH; 6 hours incubation. The protocol:
(§1) The lines HEK293 are transfected with vectors pCRE-Luc and hMCl1R or hMCl4R. The cells are cultured at 37° C. and 5% CO2, in DMEM medium supplemented with 10% foetal calf serum.
(§2) In the presence of an activator (agonist), the melanocortin receptor will activate the cAMP pathway, which, via the vector CRE-Luc, will lead to the synthesis of luciferase. After addition of a lysis buffer containing a luminescent luciferase substrate, the luminescence proportional to the degree of activation or inhibition of receptor may be measured.
(§3) The products are dissolved at 10 mM in DMSO. They are tested as a response dose at 0.1% of DMSO final. The range comprising 10 points and a zero starts at 10 μM with four-fold dilutions. To test agonists, the products are tested alone. To determine the antagonist behaviour, the products of interest are tested in the presence of 1 nM NDP-MSH (reference agonist). The cells are inoculated at a rate of 5000 cells per well (384-well plate) in serum-free DMEM medium and incubated overnight at 37° C. and 5% CO2.
(§4) The products and the reference ligand (NDP-MSH) are added the following day and the plates are reincubated for 6 hours at 37° C. and 5% CO2. After adding the lysis buffer containing luciferin, the plates are read in a Top-Count machine. The results are normalized as percentage of activity using the 100% (cells+NDP-MSH at 10 nM) and 0% (cells alone) controls. An EC50 is calculated for each product using the XLFit software.

The target of experiment [2] is T2, hMC1-R (Homo sapiens, UniProt Q01726).
T2 construct: expressed in transfected cells; host or cells: HEK293
Description: Transactivation test: melanocortin receptors (CRE-Luc luciferase), hMC1-R. Format: cell-based. The following applies: HEK293 transfected with pCRE-Luc and receptor; 10-point dose response from 10 μM; antagonist behaviour tested in presence of 1 nM NDP-MSH; 6 hours incubation. How it is done: as §1, §2, §3, §4

T1 sequence (P32245 whole entry): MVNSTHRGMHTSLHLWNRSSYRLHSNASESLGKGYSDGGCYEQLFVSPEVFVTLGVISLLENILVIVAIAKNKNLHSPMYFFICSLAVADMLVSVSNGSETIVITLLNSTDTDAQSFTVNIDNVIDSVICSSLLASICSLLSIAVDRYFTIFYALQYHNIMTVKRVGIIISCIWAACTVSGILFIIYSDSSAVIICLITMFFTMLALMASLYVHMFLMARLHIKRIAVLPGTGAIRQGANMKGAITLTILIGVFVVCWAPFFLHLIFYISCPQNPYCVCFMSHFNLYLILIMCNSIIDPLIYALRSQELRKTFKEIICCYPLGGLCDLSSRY
T2 sequence (Q01726 whole entry): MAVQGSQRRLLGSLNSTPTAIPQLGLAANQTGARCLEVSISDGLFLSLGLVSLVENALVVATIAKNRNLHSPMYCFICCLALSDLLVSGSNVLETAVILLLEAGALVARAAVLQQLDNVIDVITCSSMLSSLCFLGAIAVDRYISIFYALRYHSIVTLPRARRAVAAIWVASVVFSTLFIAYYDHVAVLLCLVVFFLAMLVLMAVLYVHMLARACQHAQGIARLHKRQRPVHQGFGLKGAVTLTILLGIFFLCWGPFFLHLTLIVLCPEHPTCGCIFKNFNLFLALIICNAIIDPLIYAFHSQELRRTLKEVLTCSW

For `COc1ccc(CC(NC(=O)NCCc2c[nH]cn2)C(=O)N2CCC(C(=O)NC(C)(C)C)(C3CCCCC3)CC2)cc1` (centres unmarked) [Example 1, 4-Cyclohexyl-1-[2-{3-[2-(1H-imidazol-4-yl)ethyl]ureido}-3-(4-methoxyphenyl)propionyl]piperidine-4-tert-butylcarbamoyl], the EC50 in experiment [1] came to 0.06 µM.

Turning to `CCOC(=O)C1(C2CCCCC2)CCN(C(=O)[C@@H](Cc2ccc(Cl)c(Cl)c2)NC(=O)NCCc2cncn2C)CC1` [Example 6, Ethyl 4-cyclohexyl-1-((R)-3-(3,4-dichlorophenyl)-2-{3-[2-(3-methyl-3H-imidazol-4-yl)ethyl]ureido}propionyl)piperidine-4-carboxylate], in experiment [1], the EC50 worked out at 0.01 µM. For the compound `CCOC(=O)C1(C2CCCCC2)CCN(C(=O)[C@@H](Cc2ccc(Cl)c(Cl)c2)NC(=O)NCCc2c[nH]cn2)CC1` [Example 5, Ethyl 4-cyclohexyl-1-((R)-3-(3,4-dichlorophenyl)-2-{3-[2-(1H-imidazol-4-yl)ethyl]ureido}propionyl)piperidine-4-carboxylate], the EC50 in experiment [1] is 0.015 µM. As to `CCOC(=O)C1(C2CCCCC2)CCN(C(=O)[C@@H](Cc2ccc(Cl)cc2Cl)NC(=O)NCCc2c[nH]cn2)CC1` [Example 9, Ethyl 4-cyclohexyl-1-((R)-3-(2,4-dichlorophenyl)-2-{3-[2-(1H-imidazol-4-yl)ethy]ureido}propionyl)piperidine-4-carboxylate], the figures for the EC50 in experiment [2] and in experiment [1] were 1 µM and 0.002 µM, respectively. In the same order, the values of `CCCC(=O)C1(C2CCCCC2)CCN(C(=O)[C@@H](Cc2ccc(OC)cc2)NC(=O)NCCc2cn(C)cn2)CC1` [Example 2, 1-[(R)-2-(4-Butyryl-4-cyclohexylpiperidin-1-yl)-1-(4-methoxybenzyl)-2-oxoethyl]-3-[2-(1-methyl-1H-imidazol-4-yl)ethyl]urea] are 1 µM and 0.05 µM. For the compound `CCOC(=O)C1(C2CCCCC2)CCN(C(=O)[C@@H](Cc2ccc(OC)cc2)NC(=S)NCCc2cn(C)cn2)CC1` [Example 8, Ethyl 4-cyclohexyl-1-((R)-3-(4-methoxyphenyl)-2-{3-[2-(1-methyl-1H-imidazol-4-yl)ethyl]thioureido}propionyl)piperidine-4-carboxylate], the EC50 in experiment [2] was 1 µM; in experiment [1] it was 0.05 µM.

For `CCCC(=O)C1(C2CCCCC2)CCN(C(=O)[C@@H](Cc2ccc(OC)cc2)NC(=O)NCCc2c[nH]nn2)CC1` [Example 3, 1-[(R)-2-(4-Butyryl-4-cyclohexylpiperidin-1-yl)-1-(4-methoxybenzyl)-2-oxoethyl]-3-[2-(1H-[1,2,3]triazol-4-yl)ethyl]urea], the EC50 in experiment [1] was 0.05 µM.

As for `CCOC(=O)C1(C2CCCCC2)CCN(C(=O)[C@@H](Cc2ccc(OC)cc2)NC(=O)NCCCc2cnc[nH]2)CC1` [Example 4, Ethyl 4-cyclohexyl-1-[(R)-2-{3-[3-(3H-imidazol-4-yl)propyl]-ureido}-3-(4-methoxyphenyl)propionyl]piperidine-4-carboxylate], the EC50 in experiment [2] turned out to be 0.5 µM; in experiment [1] it was 0.02 µM. In the same order, the values of `CCOC(=O)C1(C2CCCCC2)CCN(C(=O)[C@@H](Cc2ccc(OC)cc2)NC(=S)NCCCc2c[nH]cn2)CC1` [Example 7, Ethyl 4-cyclohexyl-1-[(R)-2-{3-[3-(1H-imidazol-4-yl)propyl]-thioureido}-3-(4-methoxyphenyl)propionyl]piperidine-4-carboxylate] are 1 µM and 0.05 µM.
